Experimental data as given in PMC7960510 (Immunity, 2021).

Assays:
Type in all cases: cell-based, human
[1] = tested on: Jurkat cells expressing TCR2 (Jurkat-TCR2); conditions: CD69; T2 cells pulsed with peptide, 2 μM, 18 h
[2] = tested on: H1395 lung cancer cells; assay: Cell-mediated cytotoxicity of H1395 lung cancer cells by TCR2 primary T cells; conditions: peptide-pulsed A*02+ H1395 cells, TMEM9-mer compared to LMP9-mer
[3] = tested on: Jurkat cells expressing TCR16; conditions: HLA-A*02:01, T2 cells pulsed with 9-mers
[4] = tested on: Jurkat-TCR15 clone; assay: Stimulation of Jurkat-TCR15 clone; conditions: HLA-A*02 context; TCR15 CDR3β […]
[5] = tested on: primary T cells expressing TCR2; conditions: HLA-A*02+ 293T cells overexpressing full-length protein, 1:1 ratio, 18 h

Molecule	stimulation of Jurkat-TCR2 cells (in words) [1]	further results
KLGGLLTMVGV	stimulated Jurkat cells expressing TCR2	
ALGGLLTPL [TMEM9-mer]	could all stimulate the Jurkat-TCR2 cells	cell-mediated cytotoxicity (in words) [2]: weaker targets for cell-mediated cytotoxicity compared to those with LMP9-mer; recognition by TCR16 (in words) [3]: recognized TMEM9-mer but not the microbial antigens
AMGGLLTQLAM	stimulated Jurkat cells expressing TCR2	
CLGGLLTMV [LMP9-mer]	could all stimulate the Jurkat-TCR2 cells	
LLGGLLTMV [EntS9-mer]	could all stimulate the Jurkat-TCR2 cells	
LLGTLVAML		stimulation of Jurkat-TCR15 clone (in words) [4]: also stimulated the Jurkat-TCR15 clone
TMEM161A: full-length protein TMEM161A expressed in HLA-A*02+ 293T cells (protein, UniProt Q9NX61 1-479, looked up, full-length) MAVLGVQLVVTLLTATLMHRLAPHCSFARWLLCNGSLFRYKHPSEEELRALAGKPRPRGRKERWANGLSEEKPLSVPRDAPFQLETCPLTTVDALVLRFFLEYQWFVDFAVYSGGVYLFTEAYYYMLGPAKETNIAVFWCLLTVTFSIKMFLTVTRLYFSAEEGGERSVCLTFAFLFLLLAMLVQVVREETLELGLEPGLASMTQNLEPLLKKQGWDWALPVAKLAIRVGLAVVGSVLGAFLTFPGLRLAQTHRDALTMSEDRPMLQFLLHTSFLSPLFILWLWTKPIARDFLHQPPFGETRFSLLSDSAFDSGRLWLLVVLCLLRLAVTRPHLQAYLCLAKARVEQLRREAGRIEAREIQQRVVRVYCYVTVVSLQYLTPLILTLNCTLLLKTLGGYSWGLGPAPLLSPDPSSASAAPIGSGEDEVQQTAARIAGALGGLLTPLFLRGVLAYLIWWTAACQLLASLFGLYFHQHLAGS		stimulation of TCR2-T cells by full-length protein (in words) [5]: appearing to be the weakest stimulator
